US8153368B2, “Four-jointed box (FJX1) in cancer diagnosis and treatment” (Vanderbilt University, priority 2007, dated 2012)

Experiments:
[1] = tested on: FJX1 mRNA in SW480 colon cancer cells; test: qRT-PCR of FJX1 mRNA after γ-secretase inhibition in SW480 cells; assay type: cell-based, human; settings: 200 nM DAPT vs vehicle (DMSO), 16 hrs
Procedure: FIG. 3—Decreased FJX1 expression following inhibition of […] (DAPT) in SW480 colon cancer cells. Cells were grown to 70-80% confluence using complete RPMI and then treated with 200 nM of DAPT or vehicle. The RNA was harvested 16 hrs later using an RNeasy™ kit (Qiagen). qRT-PCR was performed as outlined in the text. Gene expression values were normalized to a housekeeping gene (PMM1) for the final analysis. The values are expressed as fold-change in comparison to normal colonic mucosal levels.
(§1) FIG. 19A-B—Inhibition of Notch signaling causes a reduction in fjx1 expression in colon cancer cells. Fjx1 expression levels as determined by qRT-PCR in (FIG. 19A) SW480 and (FIG. 19B) SW620 colon cancer cells following treatment with the γ-secretase inhibitor DAPT.
Since four-jointed in Drosophila is regulated by Notch signaling, and mouse fjx1 expression appears to be a target of Notch regulation, the inventors predicted that inhibition of Notch signaling would inhibit FJX1 expression in colon cancer cells. A reliable pharmacological method of inhibiting Notch signaling is to block release of the Notch intracellular domain through inhibition of γ-secretase activity (van Es et al., 2005). Therefore, the inventors used a selective inhibitor of γ-secretase, DAPT, or vehicle (DMSO) to treat SW480 and SW620 cells for 16 hrs and determined the effect on levels of FJX1. […]

[2] = tested on: FJX1 mRNA in SW620 colon cancer cells; test: qRT-PCR of FJX1 mRNA after γ-secretase inhibition in SW620 cells; assay type: cell-based, human; settings: 200 nM DAPT vs vehicle (DMSO), 16 hrs
From the text: as §1
Since four-jointed in Drosophila is regulated by Notch signaling, and mouse fjx1 expression appears to be a target of Notch regulation, the inventors predicted that inhibition of Notch signaling would inhibit FJX1 expression in colon cancer cells. A reliable pharmacological method of inhibiting Notch signaling is to block release of the Notch intracellular domain through inhibition of γ-secretase activity (van Es et al., 2005). Therefore, the inventors used a selective inhibitor of γ-secretase, DAPT, or vehicle (DMSO) to treat SW480 and SW620 cells for 16 hrs and determined the effect on levels of FJX1.
(§2) FJX1 expression in colon cancer cells. In preliminary studies examining the role of fjx1 as it relates to Notch signaling in CRC, the inventors have assessed expression of fjx1 mRNA in several human colon cancer cell lines and found abundant expression of fjx1 in both SW480 and SW620 cells (in comparison with colon adenomas), and less abundant expression in HT29 cells as determined by qRT-PCR (data not shown). […]

Notch pathway [3] = test: Notch-responsive reporter (4xCSL-Luc) in HEK293T cells; assay type: cell-based, human; settings: transient transfection, DAPT 200 nM or dnMAM
Procedure: FIGS. 18A-B—Experimental inactivation of Notch pathway signaling in HEK293 cells. Transient transfections of cells was carried out using a Notch promoter reporter plasmid (4xCSL) and a control reporter (pRL-tk). The Relative Light Units (4xCSL/pRL-tk) are plotted for each treatment group. (FIG. 18A) Notch activity in HEK293 cells following treatment with NICD, NICD+200 nM DAPT, LNG (negative control), LNG+200 nM DAPT and 200 nM DAPT. (FIG. 18B) Notch promoter activity in HEK293 cells following treatment with dnMAM, NICD, NICD+dnMAM, LNG and LNG+dnMAM.
as §2, with “shown). Since four-jointed in Drosophila is regulated by Notch signaling, and mouse fjx1 expression appears to be a target of Notch regulation, the inventors predicted that inhibition of Notch signaling would inhibit fjx1 expression in colon cancer cells. A reliable pharmacological method of inhibiting Notch signaling is to block release of the Notch intracellular domain through inhibition of γ-secretase activity (van Es, 2005).” for “shown).”

Notch pathway [4] = test: Notch-responsive reporter (4xCSL-Luc) in SW480 cells; assay type: cell-based, human; settings: data not shown
From the text: FJX1 expression in colon cancer cells. In preliminary studies examining the role of fjx1 as it relates to Notch signaling in CRC, the inventors have assessed expression of fjx1 mRNA in several human colon cancer cell lines and found abundant expression of fjx1 in both SW480 and SW620 cells (in comparison with colon adenomas), and less abundant expression in HT29 cells as determined by qRT-PCR (data not shown). Since four-jointed in Drosophila is regulated by Notch signaling, and mouse fjx1 expression appears to be a target of Notch regulation, the inventors predicted that inhibition of Notch signaling would inhibit fjx1 expression in colon cancer cells. A reliable pharmacological method of inhibiting Notch signaling is to block release of the Notch intracellular domain through inhibition of γ-secretase activity (van Es, 2005). A complementary genetic method of Notch inhibition is through the use of a truncated, dominant negative construct of Mastermind or “dnMAM” (pCS2-Myc 1-30aa Mastermind a gift from K. A. Jones, Ph.D., the Salk Institute, La Jolla, Calif.) (Fryer, 2002). The dnMAM is mutated such that it cannot form a functional RBPJ complex and therefore, cannot activate the Notch responsive promoter. […] The inventors have also used DAPT treatments of SW480 and SW620 cells (200 nM for 16 hrs) to block expression of fjx1 in response to Notch signaling (FIG. 19).

FJX1 mRNA = test: qRT-PCR of FJX1 expression in rectal cancer biopsies before and after celecoxib; assay type: in vivo, human; settings: range in the four of five rectal cancers that were down-regulated; pre vs post treatment

| Structure (SMILES) | levels of FJX1 mRNA [1] | levels of FJX1 mRNA [2] | Notch promoter reporter activity (4xCSL/pRL-tk relative light units) (Notch pathway [3]) | Notch promoter reporter activity (4xCSL-Luc) (Notch pathway [4]) | fjx1 mRNA decrease after Celecoxib treatment (qRT-PCR) (FJX1 mRNA) |
| --- | --- | --- | --- | --- | --- |
| C[C@H](NC(=O)Cc1cc(F)cc(F)c1)C(=O)N[C@H](C(=O)OC(C)(C)C)c1ccccc1 [DAPT] | reduced the levels of FJX1 mRNA | reduced the levels of FJX1 mRNA | specific Notch pathway inhibition | specific Notch pathway inhibition | – |
| Cc1ccc(-c2cc(C(F)(F)F)nn2-c2ccc(S(N)(=O)=O)cc2)cc1 [celecoxib] | – | – | – | – | 2.5-17.5 fold decrease |
